Measured values published in EPA's ToxValDB 9.5.
Several values for one entry are separate records, joined by “and”; a condition that tells them apart may be missing. Identical values can stand only once.

Assays:
Rattus norvegicus [1] = details: oral
Rattus norvegicus [2] = system: Rattus norvegicus
Rattus norvegicus [3] = details: M/F
Rattus norvegicus [4] = details: for LD50: acute
[5] = short-term, duration: 28 days, gavage, F, Wistar, Deaths + Clinical Observation: Thinly haired areas of skin Weakness Thin appearance Respiratory disorders Some resistance to dosing + Body …
[6] = short-term, duration: 28 days, gavage, M, Wistar, Deaths + Clinical Observation: Thinly haired areas of skin Weakness Thin appearance Respiratory disorders Some resistance to dosing + Body …
[7] = short-term, duration: 28 days, gavage, M, Sprague-Dawley, Clinical Observation: Reddish urine Soft stool DiarrheaSpontaneous locomotion decrease, Incomplete eyelid opening + Functional Observational…
[8] = subchronic, gavage, M, Sprague-Dawley, Clinical Observation: Salivation + Body Weight Changes: Body weight gain decrease + Food Consumption: decrease + Water Consumption: increase…
[9] = subchronic, gavage, M, Sprague-Dawley, Clinical Observation: Salivation (transient) + Functional Observational Battery: Salivation (transient)Defecation increase(transient) + …

SMILES: CCC(C)=NO[Si](C)(ON=C(C)CC)ON=C(C)CC [Methyltri(2-butanoneoximyl)silane]
- NOAEL (Rattus norvegicus [1]; short-term, duration: 28 days, gavage, M, Wistar, Functional Observational Battery: Rearing decrease, Grip strength(fore and hind limb) decrease, Mean body temperature decrease + Body Weight…): 10 mg/kg-day

SMILES: CN(C)CCCCl.Cl [Dimethylaminopropyl chloride hydrochloride]
- NOEL (Rattus norvegicus [1]; subchronic, drinking water, M/F, Fischer 344, Deaths + Body Weight Changes: decrease + Blood Chemistry: TP decrease Alb decrease Bile acid increase + Histopathology: Nose-Goblet cell, …): < 6.25 mg/kg-day

SMILES: BrC(Br)c1ccccc1OCC1CO1 (stereo not drawn) [2-{[2-(Dibromomethyl)phenoxy]methyl}oxirane]
- NOEL (Rattus norvegicus [1]; subchronic, gavage, M, Sprague-Dawley, Clinical Observation: Salivation (transient) + Absolute Organ Weight: Kidney increase + Relative Organ Weight: Kidney increase + …): 8 mg/kg-day

SMILES: ClC(COCC(Cl)C(Cl)(Cl)Cl)C(Cl)(Cl)Cl (stereo not drawn) [Bis(2,3,3,3-tetrachloropropyl) ether]
- NOEL (Rattus norvegicus [1]; subchronic, gavage, M/F, Wistar, Clinical Observation: Lethargy + Body Weight Changes: decrease + Urinalysis: Ketone body increase, TP increase + Hematology: Hgb decrease, …): 40 mg/kg-day

SMILES: ClCCCCCCCCCl [Octane, 1,8-dichloro-]
- NOEL (Rattus norvegicus [1]; short-term, duration: 28 days, gavage, M/F, Sprague-Dawley, Deaths + Clinical Observation: Salivation + Functional Observational Battery: Grip strength (forelimb) decrease, Grip strength (hindlimb) …): < 40 mg/kg-day

SMILES: Nc1nc(N)nc(-c2cc(Cl)ccc2Cl)n1.O=C(O)/C=C\C(=O)O [Irsogladine maleate]
- NOEL (Rattus norvegicus [1]; chronic, duration: 91 days, gavage, M/F, Sprague-Dawley, Deaths + Clinical Observation: Piloerection Salivation Locomotor activity decrease, Decrease in reactivity Soiled fur Brownish urine Soiled …): 3 mg/kg-day

SMILES: CCCCCCCCCCCCCCCCO [1-Hexadecanol]
- NOAEL (Rattus norvegicus [1]; [5]): 300 mg/kg-day
- NOEL (Rattus norvegicus [1]; [5]): 300 mg/kg-day
- NOAEL (Rattus norvegicus [1]; [6]): 300 mg/kg-day
- NOEL (Rattus norvegicus [1]; [6]): 100 mg/kg-day
- NOAEL (Rattus norvegicus [1]; short-term, duration: 28 days, gavage, Sprague-Dawley): 1000 mg/kg-day
- NOAEL (Rattus norvegicus [1]; subchronic, duration: 13 weeks, diet, F, Crl, Body Weight Changes: decrease2064 + Food Consumption: decrease2064 + Absolute Organ Weight: Brain2064 Heart LiverSpleen Gonad + Relative …): 875 mg/kg-day
- NOAEL (Rattus norvegicus [1]; subchronic, duration: 13 weeks, diet, M, Crl, Body Weight Changes: decrease2064 + Food Consumption: decrease2064 + Absolute Organ Weight: Brain2064 Heart LiverSpleen Gonad + Relative …): 723 mg/kg-day

SMILES: CCCCCc1ccc2c(c1)C(=O)c1ccccc1C2=O [9,10-Anthracenedione, 2-pentyl-]
- NOEL (Rattus norvegicus [1]; short-term, duration: 28 days, gavage, F, Sprague-Dawley, Clinical Observation: Salivation (transient) + Hematology: RBC decrease, PT increase + Absolute Organ Weight: Liver increase + Relative …): 15 mg/kg-day

SMILES: [Cl][Ti]([Cl])([Cl])[Cl] [Titanium tetrachloride]
- LOAEL (Rattus norvegicus [2]; chronic, duration: 104 weeks, inhalation, M/F, Crl:CD(SD), respiratory): 0.1 mg/m3
- LOAEL (Rattus norvegicus [2]; short-term, duration: 4 weeks, inhalation, M, Crl:CD(SD), respiratory): 5 mg/m3

SMILES: Nc1c(Br)cc(Br)c2c1C(=O)c1ccccc1C2=O [1-Amino-2,4-dibromoanthraquinone]
- NOAEL (Rattus norvegicus [1]; [7]): < 200 mg/kg-day
- NOEL (Rattus norvegicus [1]; [7]): < 200 mg/kg-day
- NOEL (Rattus norvegicus [1]; subchronic, duration: 13 weeks, diet, F, Fischer 344, Deaths + Clinical Observation: Lethargy Emaciation StaggeredHunched posture + Body Weight Changes: decrease + Food Consumption: decrease + …): < 170 mg/kg-day
- NOEL (Rattus norvegicus [1]; subchronic, duration: 13 weeks, diet, M/F, Fischer 344, Deaths + Clinical Observation: Lethargy Emaciation StaggeredHunched posture + Body Weight Changes: decrease + Food Consumption: decrease + …): < 240 mg/kg-day

SMILES: CCCCCC1C(=O)CCC1CC(=O)OC (stereo not drawn) [Methyl dihydrojasmonate]
- NOAEL (Rattus norvegicus [1]; [8]): 100 mg/kg-day
- NOEL (Rattus norvegicus [1]; [8]): 100 mg/kg-day

SMILES: Cc1cnc[nH]1 [4-Methylimidazole]
- NOEL (Rattus norvegicus [1]; subchronic, diet, M/F, Fischer 344, Deaths + Body Weight Changes: decrease + Hematology: Hct decrease, Hgb decrease, Ret decrease, Plt decrease, RBC decrease + Blood Chemistry…): < 60 mg/kg-day

SMILES: NC(=O)N/N=C/c1ccc([N+](=O)[O-])o1 [Nitrofurazone]
- NOEL (Rattus norvegicus [1]; subchronic, duration: 13 weeks, diet, M/F, Fischer 344, Body Weight Changes: decrease + Food Consumption: decrease + Absolute Organ Weight: Liver increase + Relative Organ Weight: Liver increase…): < 14.4 mg/kg-day

SMILES: CC(C)(C)c1ccc(O)c(O)c1 [4-tert-Butylcatechol]
- NOEL (Rattus norvegicus [1]; subchronic, diet, M/F, Fischer 344, Body Weight Changes: decrease + Food Consumption: decrease + Hematology: Hct decrease, Hgb decrease, RBC decrease + Blood Chemistry: ALT …): < 75 mg/kg-day

SMILES: Nc1cccc(Cl)c1 [3-Chloroaniline]
- NOEL (Rattus norvegicus [1]; subchronic, gavage, M/F, Fischer 344, Deaths + Clinical Observation: Bluish discoloration of the genital and footpad regions + Body Weight Changes: decrease + Hematology: Hct …): < 10 mg/kg-day

SMILES: CCCC[N+](CCCC)(CCCC)CCCC.[Br-] [Tetrabutylammonium bromide]
- NOEL (Rattus norvegicus [1]; subchronic, gavage, M/F, Sprague-Dawley, Deaths + Clinical Observation: Reddish urine + Body Weight Changes: Gain decrease + Food Consumption: increase + Urinalysis: Light brown …): 60 mg/kg-day

SMILES: CC(O[Si](C)(C)C(C)(C)C)C1CNC1=O (stereo not drawn) [3-(1-{[tert-Butyl(dimethyl)silyl]oxy}ethyl)azetidin-2-one]
- NOEL (Rattus norvegicus [1]; short-term, duration: 28 days, gavage, M/F, Clinical Observation: Salivation + Blood Chemistry: TP increase, T-CHO increase, TG increase, Glu decrease, Ca increase + Organ Weight: …): 8 mg/kg-day

SMILES: CO[Si](C)(OC)OC [Trimethoxymethylsilane]
- NOAEL (Rattus norvegicus [1]; short-term, duration: 28 days, gavage, M, Sprague-Dawley, Clinical Observation: Inactivity Salivation + Body Weight Changes: Body weight gain decrease + Food Consumption: decrease + Hematology: PT …): 50 mg/kg-day

SMILES: CC1(C)CC(=O)CC(C)(C)N1[O] [(2,2,6,6-Tetramethyl-4-oxopiperidin-1-yl)oxidanyl]
- NOEL (Rattus norvegicus [1]; short-term, duration: 28 days, gavage, M/F, Clinical Observation: Salivation + Hematology: Trend of Anemia + Absolute Organ Weight: Spleen increase, Liver increase + Histopathology: …): 40 mg/kg-day

SMILES: Clc1ccc(N=Nc2ccc(Cl)c(Cl)c2)cc1Cl [3,3',4,4'-Tetrachloroazobenzene]
- NOEL (Rattus norvegicus [1]; subchronic, gavage, M/F, Fischer 344, Body Weight Changes: decrease + Hematology: Ret increase Hct decrease, Hgb decrease, RBC decrease, Plt decrease, WBC decrease, Seg decrease…): < 0.1 mg/kg-day

SMILES: C=CCN(CC=C)CC=C [Triallylamine]
- NOEL (Rattus norvegicus [1]; short-term, duration: 28 days, gavage, M/F, Sprague-Dawley, Clinical Observation: Locomotor activity decrease, Salivation + Functional Observational Battery: Hind limb grip strength decrease + Body …): 6 mg/kg-day

SMILES: CC1CCCCC1 [Methylcyclohexane]
- LOEL (Rattus norvegicus [1]; [9]): 250 mg/kg-day
- NOEL (Rattus norvegicus [1]; [9]): 62.5 mg/kg-day

SMILES: COC(=O)CC(=O)OC [Dimethyl malonate]
- NOAEL (Rattus norvegicus [1]; subchronic, gavage, M, Wistar, Histopathology: Liver: Hypertrophy, hepatocyte): 300 mg/kg-day

SMILES: CC(C)C[C@H]1C(=O)N2CCC[C@H]2[C@]2(O)O[C@](NC(=O)[C@@H]3C=C4c5cccc6[nH]cc(c56)C[C@H]4N(C)C3)(C(C)C)C(=O)N12 [Ergocryptine]
- NOEL (Rattus norvegicus [1]; subchronic, diet, F, Hsd/Ola/SD, Clinical Observation: Hyperkinesia, dirty hair Hunchback position Aggression + Body Weight Changes: decrease + Food Consumption: decrease + …): 0.36 mg/kg-day
- NOEL (Rattus norvegicus [1]; subchronic, diet, M/F, Hsd/Ola/SD, Clinical Observation: Hyperkinesia, dirty hair Hunchback position Aggression + Body Weight Changes: decrease + Food Consumption: decrease + …): 4 mg/kg-day

SMILES: CCCCCCCCC [Nonane]
- NOAEL (Rattus norvegicus [1]; subchronic, duration: 90 days, gavage, F, Fischer 344, Absolute Organ Weight: Liver increase, Lung increase, Adrenal increase, Spleen decrease, Ovary decrease + Histopathology: Alimentary tract: …): 100 mg/kg-day

SMILES: O=C(O)CCCC/C=C(\c1ccccc1)c1cccnc1 [Isbogrel]
- NOAEL (Rattus norvegicus [1]; subchronic, gavage, M/F, CD, Clinical Observation: Salivation + Hematology: RBC decrease, HCT decrease, HGB decrease + Blood Chemistry: Bil increase, GLUC decrease, TP …): < 100 mg/kg-day

SMILES: CC(=O)/C=C/C=C(\C)CCC=C(C)C [Pseudoionone]
- NOAEL (Rattus norvegicus [1]; short-term, duration: 28 days, gavage, M/F, Wistar Han, Clinical Observation: Salivation + Body Weight Changes: Weight gain decrease + Hematology: RBC increase, HCT increase, PLT increase, APTT …): 50 mg/kg-day

SMILES: Cl.Cl.Nc1ccc(Cc2ccc(N)cc2)cc1 [4,4'-Methylenedianiline dihydrochloride]
- NOEL (Rattus norvegicus [1]; subchronic, duration: 13 weeks, water, M/F, Fischer 344, Body Weight Changes: decrease + Histopathology: Liver/bile duct- Hyperplasia Thyroid-Adenomatous goiter Thyroid-Follicullar-cell hyperplasia…): 30.4 mg/kg-day

SMILES: CC(C)(c1cc(Br)c(OCCO)c(Br)c1)c1cc(Br)c(OCCO)c(Br)c1 [Tetrabromobisphenol A bis(2-hydroxyethyl) ether]
- NOEL (Rattus norvegicus [1]; subchronic, gavage, M, Sprague-Dawley, Clinical Observation: Soft stool R + Hematology: Plt increase + Blood Chemistry: BUN increase + Necropsy: Cecum-Distention): 40 mg/kg-day

SMILES: CC(CN1CCOCC1)OCCN1CCOCC1 (stereo not drawn) [Morpholine, 4-[2-[1-methyl-2-(4-morpholinyl)ethoxy]ethyl]-]
- NOEL (Rattus norvegicus [1]; short-term, duration: 28 days, gavage, M/F, Clinical Observation: Salivation Ptosis Reddish pinna Swelling of pinna + Body Weight Changes: Body weight gain decrease + Food Consumption…): < 8 mg/kg-day

SMILES: O=CCCCC=O [Glutaraldehyde]
- NOAEL (Rattus norvegicus [2]; acute, duration: 1 days, inhalation, M/F, Fischer 344, respiratory): 0.512 mg/m3
- NOAEL (Rattus norvegicus [2]; chronic, duration: 2 years, oral, drinking water, M/F, Fischer 344, gastrointestinal): 4 mg/kg-day

SMILES: Brc1ccc(Oc2cc(Br)c(Br)cc2Br)c(Br)c1 [2,2',4,4',5-Pentabromodiphenyl ether]
- LOAEL (Rattus norvegicus [2]; developmental, duration: 1 days, oral, gavage, M/F, Wistar, developmental): 0.06 mg/kg-day
- LOEL (Rattus norvegicus [3]; developmental, injection, intraperitoneal, Wistar, generation: F1, F1: Y maze): 30 mg/kg-day
- LOEL (Rattus norvegicus [3]; reproduction developmental, oral, gavage, Crl:CD(SD), generation: P0, P0: Morris water maze (latency, significant trial)): 2 mg/kg-day

SMILES: [Cd] [Cadmium]
- LOAEL (Rattus norvegicus [2]; short-term, duration: 2 weeks, inhalation, M/F, Fischer 344, respiratory): 0.088 mg/m3

SMILES: CCN(CC)C(=O)c1cccc(C)c1 [DEET]
- NOAEL (Rattus norvegicus [2]; developmental, duration: 364 days, oral, diet, M/F, Sprague-Dawley, developmental): 100 mg/kg-day

SMILES: ClCOCCl [bis(Chloromethyl) ether]
- NOAEL (Rattus norvegicus [2]; chronic, duration: 6 months, inhalation, M, Sprague-Dawley, respiratory): 0.47 mg/m3

SMILES: CC(COCC(C)OC(=O)c1ccccc1)OC(=O)c1ccccc1 (stereo not drawn) [Dipropylene glycol, dibenzoate]
- LD50 (Rattus norvegicus [4]; dermal, Sprague-Dawley): > 2000 mg/kg
- LD50 (Rattus norvegicus [4]; oral, Sprague-Dawley): 5070 mg/kg and 3300 mg/kg and 3910 mg/kg
- NOAEL (Rattus norvegicus [4]; developmental, duration: 13 days, oral, gavage, Sprague-Dawley): 500 mg/kg-day and 250 mg/kg-day
- NOAEL (Rattus norvegicus [4]; reproduction developmental, duration: 38 weeks, oral, diet, Sprague-Dawley, generation: F0): 10000 ppm
- NOAEL (Rattus norvegicus [4]; reproduction developmental, duration: 38 weeks, oral, diet, Sprague-Dawley, generation: F1): 10000 ppm
- NOAEL (Rattus norvegicus [4]; reproduction developmental, duration: 13 days, oral, gavage, F, Sprague-Dawley): 1000 mg/kg-day
- NOAEL (Rattus norvegicus [4]; subchronic, duration: 13 weeks, oral, diet): 1000 mg/kg-day
